Reference: ChEMBL document CHEMBL5506042, “Discovery of the Clinical Candidate IDOR-1117-2520: A Potent and Selective Antagonist of CCR6 for Autoimmune Diseases” (J Med Chem, 2024)
Activity calls are given as the source filed them. No cut-off for these calls is given here.

Assays:
[1] = Intrinsic clearance in rat liver microsomes at 1 uM measured for 15 mins in presence of NADPH regenerating system by LC-MS/MS analysis; type: ADME, Microsome; conditions: read-out: CLH
Mus musculus [2] = assay: Inhibition of chemotaxis of CCR6-positive B cells in bronchoalveolar lavage fluid in ovalbumin-induced inflammation BALB/c mouse model at 15 mg/kg/day, po treated with OVA from day 1 to day 18 and with compound from day 8 to 18 and measured at 24 hrs post last dose of OVA challenge by flow cytometry; type: functional, organism-based; conditions: time 11.0 day
[3] = target: T1, C-C chemokine receptor type 6 (Mus musculus, UniProt O54689); assay: Antagonist activity at CCR6 in C57BL/6J mouse whole blood assessed as inhibition of CCL20-stimulated receptor internalization in lymphocytes incubated for 40 mins followed by CCL20 addition and measured after 40 mins by flow cytometry
T1 sequence (O54689 whole entry): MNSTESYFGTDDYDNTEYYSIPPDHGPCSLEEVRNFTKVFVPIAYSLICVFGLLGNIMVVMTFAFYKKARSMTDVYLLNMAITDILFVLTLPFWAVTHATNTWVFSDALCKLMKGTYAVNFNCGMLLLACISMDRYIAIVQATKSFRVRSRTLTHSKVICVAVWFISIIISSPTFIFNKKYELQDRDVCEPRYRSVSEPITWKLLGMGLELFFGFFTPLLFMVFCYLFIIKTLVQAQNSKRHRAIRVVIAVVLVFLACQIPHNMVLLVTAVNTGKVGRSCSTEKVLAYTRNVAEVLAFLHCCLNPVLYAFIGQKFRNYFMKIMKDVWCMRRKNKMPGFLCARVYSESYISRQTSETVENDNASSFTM

[4] = Intrinsic clearance in rat liver microsomes at 3 uM measured for 15 mins in presence of NADPH regenerating system by LC-MS/MS analysis; type: ADME, Microsome; conditions: read-out: CLH
Mus musculus [5] = assay: Inhibition of chemotaxis of CCR6-positive B cells in bronchoalveolar lavage fluid in ovalbumin-induced inflammation BALB/c mouse model at 15 mg/kg/day, po treated with OVA and compound from day 1 to day 18 and measured at 24 hrs post last dose of OVA challenge by flow cytometry; type: functional, organism-based; conditions: time 18.0 day
[6] = Fraction unbound in rat plasma at 1 uM by rapid equilibrium dialysis based LC-MS/MS analysis; type: ADME, cell-free
HepaRG = assay: Cytotoxicity against human HepaRG cells assessed as leakage of intracellular LDH at 30 uM incubated for 24 hrs by spectrophotometry
[7] = Clearance in Wistar rat at 1 mg/kg, iv; type: ADME, organism-based; conditions: in vivo
[8] = Intrinsic clearance in mouse liver microsomes at 1 uM measured for 15 mins in presence of NADPH regenerating system by LC-MS/MS analysis; type: ADME, Microsome; conditions: read-out: CLH
[9] = Intrinsic clearance in human liver microsomes at 1 uM measured for 15 mins in presence of NADPH regenerating system measured per mg protein by LC-MS/MS analysis; type: ADME, Microsome; conditions: read-out: CLH
[10] = AUC in Wistar rat at 50 mg/kg, po; type: ADME, organism-based; conditions: in vivo
[11] = Volume of distribution at steady state in Wistar rat at 1 mg/kg, iv; type: ADME, organism-based; conditions: in vivo, read-out: Vdss
[12] = Lipophilicity, LogD of the compound in 1-Octanol/PBS at pH 7.4 by miniaturized shake flask method
[13] = Tmax in C57BL/6 mouse at 15 mg/kg, po; type: ADME, organism-based; conditions: in vivo
[14] = Tmax in C57BL/6 mouse at 50 mg/kg, po; type: ADME, organism-based; conditions: in vivo
[15] = Chemical stability of the compound at 0.1 mg/ml at pH 10 irradiated with xenon lamp at 250W/m2 incubated for 24 hrs by stress test; type: physicochemical; conditions: buffer, read-out: Stability
[16] = fCmax in po dosed C57BL/6 mouse; type: ADME, organism-based; conditions: in vivo
[17] = AUC in C57BL/6 mouse at 50 mg/kg, po; type: ADME, organism-based; conditions: in vivo
[18] = Cmax in C57BL/6 mouse at 15 mg/kg, po; type: ADME, organism-based; conditions: in vivo
[19] = Chemical stability of the compound at 0.1 mg/ml at pH 4 irradiated with xenon lamp at 250W/m2 incubated for 24 hrs by stress test; type: physicochemical; conditions: buffer, read-out: Stability
[20] = AUC in C57BL/6 mouse at 15 mg/kg, po; type: ADME, organism-based; conditions: in vivo
[21] = Tmax in Wistar rat at 50 mg/kg, po; type: ADME, organism-based; conditions: in vivo
[22] = Chemical stability of the compound at 0.1 mg/ml at pH 2 irradiated with xenon lamp at 250W/m2 incubated for 24 hrs by stress test; type: physicochemical; conditions: buffer, read-out: Stability
[23] = Cytotoxicity against human HepG2 cells assessed as reduction in cell viability incubated for 72 hrs by CellTiter-Glo assay
[24] = Tmax in Wistar rat at 10 mg/kg, po; type: ADME, organism-based; conditions: in vivo
[25] = Oral bioavailability in Wistar rat at 10 mg/kg; type: ADME, organism-based; conditions: in vivo
[26] = Intrinsic clearance in rat liver microsomes at 0.1 uM measured for 15 mins in presence of NADPH regenerating system by LC-MS/MS analysis; type: ADME, Microsome; conditions: read-out: CLH
[27] = Chemical stability of the compound at 0.1 mg/ml at pH 7 irradiated with xenon lamp at 250W/m2 incubated for 24 hrs by stress test; type: physicochemical; conditions: buffer, read-out: Stability
[28] = Chemical stability of the compound at 0.1 mg/ml at pH 9 irradiated with xenon lamp at 250W/m2 incubated for 24 hrs by stress test; type: physicochemical; conditions: buffer, read-out: Stability
[29] = Cmax in Wistar rat at 10 mg/kg, po; type: ADME, organism-based; conditions: in vivo
[30] = Cmax in Wistar rat at 50 mg/kg, po; type: ADME, organism-based; conditions: in vivo
[31] = Oral bioavailability in Wistar rat at 50 mg/kg; type: ADME, organism-based; conditions: in vivo
[32] = Fraction unbound in mouse plasma at 1 uM by rapid equilibrium dialysis based LC-MS/MS analysis; type: ADME, cell-free
[33] = Cmax in C57BL/6 mouse at 50 mg/kg, po; type: ADME, organism-based; conditions: in vivo
[34] = AUC in Wistar rat at 10 mg/kg, po; type: ADME, organism-based; conditions: in vivo
[35] = Half life in Wistar rat at 1 mg/kg, iv; type: ADME, organism-based; conditions: in vivo

microsomal CLint at […], 1 µM [1]: 750 µL/min/mg
IC50 [3]: 0.0013 µM
microsomal CLint at […], 3 µM [4]: 450 µL/min/mg
fraction unbound at 1 µM [6]: 0.06
clearance [7]: 62 mL/min/kg
microsomal CLint at […], 1 µM [8]: 666 µL/min/mg
microsomal CLint at […], 1 µM [9]: 146 µL/min/mg
AUC [10]: 1500 ng·h/mL
Vd [11]: 11 L/kg
logD [12]: 2.2
Tmax [13]: 30 min
Tmax [14]: 120 min
remaining at 24 h, 0.1 mg/ml [15]: 2%
fCmax [16]: 55 ng/mL
AUC [17]: 5030 ng·h/mL
Cmax [18]: 30 ng/mL
remaining at 24 h, 0.1 mg/ml [19]: 4%
AUC [20]: 145 ng·h/mL
Tmax [21]: 30 min
remaining at 24 h, 0.1 mg/ml [22]: 97%
Tmax [24]: 30 min
bioavailability [25]: 6%
microsomal CLint at […], 0.1 µM [26]: > 1250 µL/min/mg
remaining at 24 h, 0.1 mg/ml [27]: 3%
remaining at 24 h, 0.1 mg/ml [28]: 2%
Cmax [29]: 110 ng/mL
Cmax [30]: 308 ng/mL
bioavailability [31]: 11%
fraction unbound at 1 µM [32]: 0.05
Cmax [33]: 1100 ng/mL
AUC [34]: 165 ng·h/mL
half-life [35]: 144 min
SMILES: CN1CC(C)(C(O)(c2ccc(OC(F)(F)F)cc2)c2cncc(N3CCCC3)c2)C1 (racemic)
inhibition (Mus musculus [2]): Active
inhibition (Mus musculus [5]): Active
Activity (HepaRG): Non-Toxic
IC50 at 72 h [23]: 11 µM
